Test results: BindingDB's records for doi:10.1021/jm00095a029 (Warner-Lambert, 1992)
Non-standard residues stand in square brackets, D forms with d. Residues, ends and D or L forms follow the SMILES beside them.

System: Endothelin A receptor
Assay: ChEBML_63192

IC50: 400 nM
SMILES: CC[C@H](C)[C@H](NC(=O)[C@H](CC(=O)O)NC(=O)[C@H](CC(C)C)NC(=O)[C@@H](Cc1ccc(O)cc1)NC(C)=O)C(=O)N[C@H](C(=O)N[C@@H](Cc1c[nH]c2ccccc12)C(=O)O)[C@@H](C)CC (Ac-[dY]LDIIW-OH)
